≈ marks a conversion by molar mass, not a printed value. Like-named read-outs stand apart in the source and are kept apart here.
Tests used:
[1] = system: P. falciparum Dd2 Cytb G131S; test: SYBR Green ABS proliferation assay, NCGC00374598 selected clone C11; format: cell-based, Plasmodium falciparum
Outline: (§1)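 Drug-selected P. falciparum Dd2 clones carrying Cytb mutations, obtained by limiting-dilution cloning, grown in RBCs at 37 °C under 5% CO2/5% O2/90% N2. Growth read by SYBR Green-I fluorescence at 72 h and normalized to controls.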

[2] = system: P. falciparum Dd2 (clone B2) asexual blood stage parasites; test: P. falciparum Dd2 asexual blood stage SYBR Green-I 72 h proliferation assay (qHTS); format: cell-based, Plasmodium falciparum
[3] = system: P. falciparum Dd2 Cytb V259L; test: SYBR Green ABS proliferation assay, NCGC00473217 selected clone F06; format: cell-based, Plasmodium falciparum
Outline: as §1

[4] = system: P. falciparum Dd2 Cytb F123L; test: SYBR Green ABS proliferation assay, NCGC00473217 selected clone G08; format: cell-based, Plasmodium falciparum
Outline: as §1

[5] = Parallel artificial membrane permeability assay (PAMPA); format: in vitro ADME; conditions: for PAMPA pH7.4: pH 7.4
Protocol: (§2) Pharmacokinetic modeling experiments, parallel artificial membrane permeability assay (PAMPA), solubility, and rat liver microsome stability assessment were performed on all synthetic compounds, as previously described[73]–[75].

[6] = Rat liver microsomal stability (RLMS); conditions: rat liver microsomes; for half-life: rat
Protocol: as §2

[7] = system: P. falciparum Dd2 Cytb A122D; test: SYBR Green ABS proliferation assay, NCGC00473217 selected clone F12; format: cell-based, Plasmodium falciparum
Outline: as §1

Aqueous solubility = format: physicochemical; conditions: aqueous media
Protocol: as §2

[8] = system: P. falciparum Dd2 cytochrome b mutant lines; test: Drug response of drug-selected cytochrome b mutant lines versus parental Dd2-B2 (panel); format: cell-based, Plasmodium falciparum; conditions: all cytochrome b mutant lines vs Dd2-B2
Protocol: As resistance selection studies implicated the parasite cytochrome bc1 complex in mediating reduced parasite susceptibility to both NCGC00473217 and NCGC00374598, we leveraged these drug-selected parasites to test for altered drug response to a panel of antimalarial compounds.
The P. falciparum parasite Dd2 line was cultured in vitro using standard conditions. […] Tissue culture flasks and assay plates were incubated at 37 °C under a gas mixture of 5% CO2, 5% O2 and 90% N2. […] Significant differences were assessed using two-sided Student’s t-tests. All HTS assays were stopped and read at 72 h. Percent response values represent relative growth as judged by SYBR Green-I fluorescence intensity values normalized to controls.

[9] = Plasmodium falciparum, DD2, NCGC00374598 selected clone C11, read-out: AC50 [μM], Cytb G131S (converted)
[10] = Plasmodium falciparum, DD2, NCGC00374598 selected clone, read-out: AC50 Log[M] ± SD, Cytb G131S (converted)
[11] = Plasmodium falciparum, DD2, 72 h, SYBR Green 72 h, WT Dd2-B2, read-out: AC50 Log[M] ± SD, Dd2-B2 (parental line) (converted)
[12] = Plasmodium falciparum, DD2, 72 h, SYBR Green 72 h, approximate value in μM, read-out: AC50 [μM], Dd2-B2 (parental line) (converted)
[13] = Plasmodium falciparum, DD2, NCGC00473217 selected clone F06, read-out: AC50 [μM], Cytb V259L (converted)
[14] = Plasmodium falciparum, DD2, NCGC00473217 selected clone, read-out: AC50 Log[M] ± SD, Cytb V259L (converted)
[15] = Plasmodium falciparum, DD2, NCGC00473217 selected clone G08, highest concentration 29 µM, read-out: AC50 [μM], Cytb F123L (converted)
[16] = Plasmodium falciparum, DD2, NCGC00473217 selected clone, read-out: AC50 Log[M] ± SD, Cytb F123L (converted)
[17] = Plasmodium falciparum, DD2, NCGC00473217 selected clone F12, read-out: AC50 [μM], Cytb A122D (converted)
[18] = Plasmodium falciparum, DD2, NCGC00473217 selected clone, read-out: AC50 Log[M] ± SD, Cytb A122D (converted)
[19] = Plasmodium falciparum, DD2, Suppl Table 6, read-out: AC50 (mM), Dd2 Cytb G131S
[20] = Plasmodium falciparum, DD2, Suppl Table 6, read-out: AC50 (mM), WT (Dd2-B2)
[21] = Plasmodium falciparum, DD2, Suppl Table 6, read-out: AC50 (mM), Dd2 Cytb V259L
[22] = Plasmodium falciparum, DD2, Suppl Table 6, read-out: AC50 (mM), Dd2 Cytb F123L
[23] = Plasmodium falciparum, DD2, Suppl Table 6, read-out: AC50 (mM), Dd2 Cytb A122D

Row | SMILES | AC50 [1, 9] [µM] | AC50 [1, 10] [µM] | AC50 [2, 11] [M] | AC50 [2, 12] [M] | AC50 [3, 13] [µM] | AC50 [3, 14] [µM] | AC50 [4, 15] [µM] | AC50 [4, 16] [µM] | PAMPA pH7.4 [5] | half-life [6] [min] | AC50 [7, 17] [µM] | AC50 [7, 18] [µM] | solubility (Aqueous solubility) [µg/mL] | change in susceptibility across drug-selected lines [8] | also measured
1 | CCCN1C(CC(C)C)=NS(=O)(=O)c2cc(NC(=O)C3CCCC3)ccc21 [NCGC00521158] | 4.15 | 4.17 | 2.69e-06 | 2.72e-06 | 2.16 | 2.14 | 11.7 | 11.7 | 726 1e-6 cm/s | 4.8 | 5.25 | 5.25 | < 1 |  | 
2 | CCCN1C(CC(C)C)=NS(=O)(=O)c2cc(NC(=O)c3sccc3C)ccc21 [NCGC00521035] | 1.65 | 1.66 | 1.58e-06 | 1.59e-06 | 6.84 | 6.76 | > 29 |  | 1597 1e-6 cm/s | 3.4 | 2.83 | 2.82 | < 1 |  | 
3 | CN1C(c2ccccc2)=NS(=O)(=O)c2cc(NC(=O)c3ccc(F)cc3)ccc21 [NCGC00651719] | > 29 |  |  | > 2.9e-05 | > 29 |  | > 29 |  | 3.25 1e-6 cm/s | > 30 | > 29 |  | < 1 |  | 
4 | CC(C)CC1=NS(=O)(=O)c2cc(NC(=O)c3ccc(F)s3)ccc2N1C [NCGC00651708] | > 29 |  | 1.66e-06 | 1.68e-06 | > 29 |  | > 29 |  | 3.07 1e-6 cm/s | > 30 | > 29 |  | < 1 |  | RLMS T1/2 [6]: much better stability
5 | CO[C@H]1O[C@@H]2O[C@@]3(C)CC[C@H]4[C@H](C)CC[C@@H]([C@H]1C)[C@@]24OO3 [Artemether, artemether, reference compound] |  | 0.0324 | 5.13e-08 |  |  | 0.0661 |  | 0.0363 |  |  |  | 0.0661 |  | no observed change in susceptibility | AC50 [1, 19]: 0.0322 µM; AC50 [2, 20]: 5.11e-08 M; AC50 [3, 21]: 0.0668 µM; AC50 [4, 22]: 0.0361 µM; AC50 [7, 23]: 0.0668 µM
6 | CCCN1C(CC2CCCCC2)=NS(=O)(=O)c2cc(NC(=O)c3ccc(F)cc3)ccc21 [NCGC00532335] | 0.861 | 0.851 | 8.91e-07 | 8.94e-07 | > 29 |  | > 29 |  | <1 1e-6 cm/s | > 30 | 3.31 | 3.31 | < 1 |  | 
7 | CCCN1C(CC(C)C)=NS(=O)(=O)c2cc(NC(=O)Nc3nccs3)ccc21 [NCGC00537523] | 2.67 | 2.69 | 2.14e-06 | 2.16e-06 | 5.23 | 5.25 | 9.56 | 9.55 | 113 1e-6 cm/s | 7.8 | 9.29 | 9.33 | 1.2 (≈ 2.85 µM) |  | 
8 | CCCN1C(CC2CCCCC2)=NS(=O)(=O)c2cc(NC(=O)c3cccs3)ccc21 [NCGC00532404] | 0.966 | 0.955 | 3.55e-07 | 3.56e-07 | 1.5 | 1.51 | > 29 |  |  | 3.4 | 1.53 | 1.51 | < 1 |  | Papp ([5]; PAMPA): < 500 ×10⁻⁶ cm/s
9 | CCN(CC)CCCC(C)Nc1ccnc2cc(Cl)ccc12 (stereo not shown) [chloroquine] |  |  |  |  |  |  |  |  |  |  |  |  |  | no observed change in susceptibility | 
10 | COc1cc2[nH]c(C)c(-c3ccc(Oc4ccc(OC(F)(F)F)cc4)cc3)c(=O)c2cc1Cl [ELQ-300, reference compound] |  |  |  |  |  |  |  |  |  |  |  |  |  | no observed change in susceptibility | AC50 Log[M] ± SD, Cytb G131S ([1]; NCGC00374598 selected clone): -7.16 Log[M]; AC50 ([1]; Suppl Table 6, read-out: AC50 (mM), Dd2 Cytb G131S): 0.0693 µM; AC50 Log[M] ± SD, Dd2-B2 (parental line) ([2]; SYBR Green 72 h, WT Dd2-B2): -7.13 Log[M]; AC50 ([2]; Suppl Table 6, read-out: AC50 (mM), WT (Dd2-B2)): 7.5e-08 M; AC50 Log[M] ± SD, Cytb V259L ([3]; NCGC00473217 selected clone): -7.06 Log[M]; AC50 ([3]; Suppl Table 6, read-out: AC50 (mM), Dd2 Cytb V259L): 0.0873 µM; AC50 Log[M] ± SD, Cytb F123L ([4]; NCGC00473217 selected clone): -7.68 Log[M]; AC50 ([4]; Suppl Table 6, read-out: AC50 (mM), Dd2 Cytb F123L): 0.0211 µM; AC50 Log[M] ± SD, Cytb A122D ([7]; NCGC00473217 selected clone): -7.39 Log[M]; AC50 ([7]; Suppl Table 6, read-out: AC50 (mM), Dd2 Cytb A122D): 0.0406 µM
11 | CC(C)CC1=NS(=O)(=O)c2cc(NC(=O)c3ccc(F)cc3)ccc2N1C [NCGC00651713] | > 29 |  |  | > 2.9e-05 | > 29 |  | > 29 |  | <1 1e-6 cm/s | > 30 | > 29 |  | < 1 |  | 
12 | CC(C)CC1=NS(=O)(=O)c2cc(NC(=O)c3cccs3)ccc2N1C [NCGC00521057] | 0.225 | 0.224 | 1.86e-06 | 1.85e-06 | > 29 |  | > 29 |  | 130 1e-6 cm/s | > 30 | > 29 |  | 1.6 (≈ 4.24 µM) |  | PAMPA permeability [5]: low permeability
13 | OC(c1cc(C(F)(F)F)nc2c(C(F)(F)F)cccc12)C1CCCCN1 (stereo not shown) [Mefloquine, mefloquine, reference compound] |  | 0.0832 | 7.76e-08 |  |  | 0.123 |  | 0.0977 |  |  |  | 0.129 |  | no observed change in susceptibility | AC50 [1, 19]: 0.0841 µM; AC50 [2, 20]: 7.78e-08 M; AC50 [3, 21]: 0.123 µM; AC50 [4, 22]: 0.0979 µM; AC50 [7, 23]: 0.128 µM
14 | CCCN1C(CC(C)C)=NS(=O)(=O)c2cc(NC(=O)c3sccc3Cl)ccc21 [NCGC00531529] | 0.586 | 0.589 | 2.24e-06 | 2.25e-06 | 3.72 | 3.72 | > 29 |  | 678 1e-6 cm/s | 2.8 | 0.603 | 0.603 | < 1 |  | 
15 | CCN(CC)Cc1cc(Nc2ccnc3cc(Cl)ccc23)ccc1O [Amodiaquine, amodiaquine, reference compound] |  | 0.049 | 4.68e-08 |  |  | 0.0724 |  | 0.055 |  |  |  | 0.0661 |  | no observed change in susceptibility | AC50 [1, 19]: 0.0491 µM; AC50 [2, 20]: 4.73e-08 M; AC50 [3, 21]: 0.0721 µM; AC50 [4, 22]: 0.0551 µM; AC50 [7, 23]: 0.0668 µM
16 | CCCN1C(CC(C)C)=NS(=O)(=O)c2cc(NC(=O)c3ccc(F)s3)ccc21 [NCGC00523537] | 0.317 | 0.316 | 1.12e-07 | 1.13e-07 | 0.894 | 0.891 | > 29 |  | 1480 1e-6 cm/s | 4.4 | 0.797 | 0.794 | < 1 |  | PAMPA permeability [5]: high permeability; RLMS T1/2 [6]: poor stability

From paper PMC7822874, “Chemoprotective antimalarials identified through quantitative high-throughput screening of Plasmodium blood and liver stage parasites” (Scientific Reports, 2021)
